In PubChem BioAssay (NCI):
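A five-concentration, 48-hour dose response in 96-well plates underlies each endpoint, interpolated linearly between surrounding concentrations. Here, GI50 denotes the concentration required for 50% inhibition of growth. The concentration for full growth arrest is given as TGI.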

Assays:
Test in all cases: NCI-60 cell line screen, 48 h; in the data active = GI50 below about 0.43 µM; inactive = the rest
NCI-H226 lung = system: NCI-H226 lung
NCI-H23 lung = system: NCI-H23 lung
NCI-H460 lung = system: NCI-H460 lung
NCI-H522 lung = system: NCI-H522 lung
NCI/ADR-RES ovarian = system: NCI/ADR-RES ovarian
OVCAR-3 ovarian = system: OVCAR-3 ovarian
OVCAR-4 ovarian = system: OVCAR-4 ovarian
OVCAR-5 ovarian = system: OVCAR-5 ovarian
OVCAR-8 ovarian = system: OVCAR-8 ovarian
PC-3 prostate = system: PC-3 prostate
RPMI-8226 leukemia = system: RPMI-8226 leukemia
RXF 393 renal = system: RXF 393 renal
SF-268 CNS = system: SF-268 CNS
SF-295 CNS = system: SF-295 CNS
SF-539 CNS = system: SF-539 CNS
SK-MEL-2 melanoma = system: SK-MEL-2 melanoma
SK-MEL-28 melanoma = system: SK-MEL-28 melanoma
SK-MEL-5 melanoma = system: SK-MEL-5 melanoma
SK-OV-3 ovarian = system: SK-OV-3 ovarian
SN12C renal = system: SN12C renal
SNB-19 CNS = system: SNB-19 CNS
SNB-75 CNS = system: SNB-75 CNS
SR leukemia = system: SR leukemia
SW-620 colon = system: SW-620 colon
T-47D breast = system: T-47D breast
TK-10 renal = system: TK-10 renal
U251 CNS = system: U251 CNS
UACC-257 melanoma = system: UACC-257 melanoma
UACC-62 melanoma = system: UACC-62 melanoma
UO-31 renal = system: UO-31 renal

CC1[C@H]2[C@H](C[C@H]3[C@@H]4CC=C5c6sc(Nc7ccccc7F)nc6CC[C@]5(C)[C@H]4CC[C@@]32C)O[C@]12CC[C@@H](C)CO2 (some centres undefined)
66.7 µM: TGI (RXF 393 renal)
> 100 µM: TGI (NCI-H226 lung) | TGI (NCI-H23 lung) | TGI (NCI-H460 lung) | TGI (NCI-H522 lung) | TGI (NCI/ADR-RES ovarian) | TGI (OVCAR-3 ovarian) | TGI (OVCAR-4 ovarian) | TGI (OVCAR-5 ovarian) | TGI (OVCAR-8 ovarian) | TGI (PC-3 prostate) | TGI (RPMI-8226 leukemia) | TGI (SF-268 CNS) | TGI (SF-295 CNS) | TGI (SF-539 CNS) | TGI (SK-MEL-2 melanoma) | TGI (SK-MEL-28 melanoma) | TGI (SK-MEL-5 melanoma) | TGI (SK-OV-3 ovarian) | TGI (SN12C renal) | TGI (SNB-19 CNS) | TGI (SNB-75 CNS) | TGI (SR leukemia) | TGI (SW-620 colon) | TGI (T-47D breast) | TGI (TK-10 renal) | TGI (U251 CNS) | TGI (UACC-257 melanoma) | TGI (UACC-62 melanoma) | TGI (UO-31 renal)
inactive: GI50 (NCI-H23 lung) 59.5 µM | GI50 (NCI-H460 lung) 91.1 µM | GI50 (NCI-H522 lung) 34.7 µM | GI50 (NCI/ADR-RES ovarian) > 100 µM | GI50 (OVCAR-3 ovarian) > 100 µM | GI50 (OVCAR-4 ovarian) > 100 µM | GI50 (OVCAR-5 ovarian) > 100 µM | GI50 (OVCAR-8 ovarian) > 100 µM | GI50 (PC-3 prostate) 26.3 µM | GI50 (RPMI-8226 leukemia) 35.5 µM | GI50 (RXF 393 renal) 9.09 µM | GI50 (SF-268 CNS) > 100 µM | GI50 (SF-295 CNS) 53.3 µM | GI50 (SF-539 CNS) 80.9 µM | GI50 (SK-MEL-2 melanoma) > 100 µM | GI50 (SK-MEL-28 melanoma) > 100 µM | GI50 (SK-MEL-5 melanoma) 31.7 µM | GI50 (SK-OV-3 ovarian) > 100 µM | GI50 (SN12C renal) > 100 µM | GI50 (SNB-19 CNS) > 100 µM | GI50 (SNB-75 CNS) 31.2 µM | GI50 (SR leukemia) 24.8 µM | GI50 (SW-620 colon) 76.1 µM | GI50 (T-47D breast) 25 µM | GI50 (TK-10 renal) > 100 µM | GI50 (U251 CNS) > 100 µM | GI50 (UACC-257 melanoma) 54.1 µM | GI50 (UACC-62 melanoma) 43.1 µM | GI50 (UO-31 renal) > 100 µM
